Measured values reported in patent US8445430B2, “Cyclic carboxamide compounds and analogues thereof as of hepatitis C virus” (Achillion Pharmaceuticals, Inc., priority 2008, dated 2013).

Each compound was assayed on HCV replicon in Huh-7 cells (assay: HCV replicon assay (NPT ELISA) for inhibition of HCV replication). Conditions: Hepatitis C virus, Huh-7, 72 h, HCV replicon-containing Huh-7 cells, three days incubation.
Format: cell-based
Experimental: Compounds claimed herein are tested for the ability to inhibit viral replication of the Hepatitis C replicon in cultured cells in which the HCV replicon construct has been incorporated. The HCV replicon system was described by Bartenschlager, et. al (Science, 285, pp. 110-113 (1999)). The replicon system is predictive of in vivo anti-HCV activity; compounds that are active in humans uniformly evidence activity in the replicon assay.
In this assay HCV replicon containing cells are treated with different concentrations of the test compound to ascertain the ability of the test compound to suppress replication of the HCV replicon. As a positive control, HCV replicon-containing cells are treated with different concentrations of interferon alpha, a known inhibitor of HCV replication. The replicon assay system includes Neomycin Phosphotransferase (NPT) as a component of the replicon itself in order to detect the transcription of replicon gene products in the host cell. Cells in which the HCV replicon is actively replicating have high levels of NPT; the level of NPT is proportional to HCV replication. […] The NPT level of each sample is measured using a captured ELISA.
A protocol for testing compounds for the ability to inhibit viral replication of the Hepatitis C replicon cultured cells in which the replicon construct has been incorporated, follows.
The HCV replicon contains, 5′-3′, the HCV-IRES, the neomycin phosphotransferase (neo) gene, the IRES of encephalomyocarditis virus, which directs translation of HCV sequences NS3 to NS5B, and the 3′-NTR. The sequence of the HCV replicon has been deposited in GenBank (Accession no. AJ242652).
The replicon is transfected into Huh-7 cells using standard methods such as electroporation.
The equipment and materials include, but are not limited to, Huh-7 HCV replicon-containing cells, maintenance media (DMEM (Dulbecco's modified Eagle media) supplemented with 10% FBS, L-glutamine, non-essential amino acids, penicillin (100 units/ml), streptomycin (100 micrograms/ml), and 500 micrograms/ml of Geneticin (G418), screening media (DMEM supplemented with 10% FBS, L-glutamine, non-essential amino acids, penicillin (100 units/ml) and streptomycin (100 micrograms/ml)), 96 well tissue culture plates (flat bottom), 96 well plates (U bottom for drug dilution), Interferon alpha for positive control, fixation reagent (such as methanol:acetone), primary antibody (rabbit anti-NPTII), secondary antibody: Eu-N11, and enhancement solution.
HCV replicon-containing cells support high levels of viral RNA replicon replication when their density is suitable. Over-confluency causes decreased viral RNA replication. Therefore, cells must be kept growing in log phase in the presence of 500 micrograms/ml of G418. Generally, cells should be passed twice a week at 1: 4-6 dilution. Cell maintenance is conducted as follows:
HCV replicon-containing cells are examined under a microscope to ensure that cells growing well. Cells are rinsed once with PBS and 2 ml trypsin is added. The cell/trypsin mixture is incubated at 37° C. in a CO2 incubator for 3-5 minutes. After incubation 10 ml of complete media is added to stop the trypsinization reaction. Cells are blown gently, put into a 15 ml tube, and spun at 1200 rpm for 4 minutes. The trypsin/medium solution is removed. Medium (5 ml) is added and the cells are mixed carefully. The cells are counted.
The cells are then seeded onto 96-well plates at a density of 6000-7500 cells/100 microliters/well (6-7.5×10^5 cells/10 ml/plate). The plates are then incubated at 37° C. in a 5% CO2 incubator.
Cells are examined under a microscope approximated 24 hours after seeding and prior to adding drugs. If counting and dilution were performed correctly, cells are 60-70% confluent and nearly all cells should attach and spread evenly in the well.
HCV replicon-containing cells are rinsed with once PBS once; 2 mls of trypsin are then added. Cells are incubated at 37° C. in a 5% CO2 incubator for 3-5 minutes. […]
For COc1ccc2c(O[C@@H]3C[C@H]4C(=O)N[C@]5(C(=O)NS(=O)(=O)C6CC6)C[C@H]5/C=C\CCCC(=O)N[C@@H](CC(=O)OC(C)(C)C)C(=O)N4C3)cc(-c3nc(C(C)C)cs3)nc2c1C [Compound 16, tert-butyl 2-((2R,6S,14aR,16aS,Z)-14a-(cyclopropylsulfonylcarbamoyl)-2-(2-(4-isopropyithiazol-2-yl)-7-methoxy-8-methylquinolin-4-yloxy)-5,8,16-trioxo-1,2,3,5,6,7,8,9,10,11,13a,14,14a,15,16,16a-hexadecahydrocyclopropa[n]pyrrolo [2,1-c][1,4,7]triazacyclopentadecin-6-yl)acetate], the EC50 was at most 10000 nM.

Same assay, conditions: Hepatitis C virus, Huh-7, 72 h, HCV replicon-containing Huh-7 cells, three days incubation; read-out: EC50
COc1ccc2c(O[C@@H]3C[C@H]4C(=O)N[C@]5(C(=O)NS(=O)(=O)C6CC6)C[C@H]5/C=C\CCCC(=O)N[C@@H](CC(=O)N5CCCCC5)C(=O)N4C3)cc(-c3ccccc3)nc2c1 [Compound 15, (2R,6S,14aR,16aS,Z)-N-(cyclopropylsulfonyl)-2-(7-methoxy-2-phenylquinolin-4-yloxy)-5,8,16-trioxo-6-(2-oxo-2-(piperidin-1-yl)ethyl)-1,2,3,5,6,7,8,9,10,11,13a,14,14a,15,16,16a hexadecahydrocyclopropa[n]pyrrolo [2,1-c][1,4,7]triazacyclopentadecine-14a-carboxamide] was tested, and the EC50 was under 1000 nM.
Work on COc1ccc2c(O[C@@H]3C[C@H]4C(=O)NC5(C(=O)NS(=O)(=O)C6CC6)CC5/C=C\CCCC(=O)N[C@@H](C(C)(C)C)C(=O)N4C3)cc(-c3ccccc3)nc2c1 (stereo partly drawn) [Compound 4, (2R,6S,16aS,Z)-6-tert-butyl-N-(cyclopropylsulfonyl)-2-(7-methoxy-2-phenylquinolin-4-yloxy)-5,8,16-trioxo-1,2,3,5,6,7,8,9,10,11,13a,14,14a,15,16,16a-hexadecahydrocyclopropa[n]pyrrolo[2,1-c] [1,4,7]triazacyclopentadecine-14a-carboxamide] yielded an EC50 of 1000 to 10000 nM.
COc1ccc2c(O[C@@H]3C[C@H]4C(=O)N[C@]5(C(=O)NS(=O)(=O)C6CC6)C[C@H]5/C=C\CCCC(=O)N[C@@H](CC(=O)N5CCCC(F)(F)C5)C(=O)N4C3)cc(-c3nc(C(C)C)cs3)nc2c1C [Compound 17, (2R,6S,14aR,16aS,Z)-N-(cyclopropylsulfonyl)-6-(2-(3,3-difluoropiperidin-1-yl)-2-oxoethyl)-2-(2-(4-isopropylthiazol-2-yl)-7-methoxy-8-methylquinolin-4-yloxy)-5,8,16-trioxo-1,2,3,5,6,7,8,9,10,11,13a,14,14a, 15,16,16a-hexadecahydrocyclopropa[n] pyrrolo[2,1-c][1,4,7]triazacyclopenta-decine-14a-carboxamide] showed an EC50 of under 1000 nM.
Compound COc1ccc2c(O[C@@H]3C[C@H]4C(=O)N[C@@]5(C(=O)NS(=O)(=O)C6CC6)C[C@@H]5/C=C\CCCC(=O)N[C@H](C(C)(C)C)C(=O)N4C3)cc(-c3ccccc3)nc2c1 [Compound 9, (2R,6R,13aR,14aS,16aS,Z)-6-tert-butyl-N-(cyclopropylsulfonyl)-2-(7-methoxy-2-phenylquinolin-4-yloxy)-5,8,16-trioxo-1,2,3,5,6,7,8,9,10,11,13a,14,14a,15,16,16a-hexadecahydrocyclopropa[n]pyrrolo[2,1-c] [1,4,7]triazacyclopentadecine-14a-carboxamide] has an EC50 of under 1000 nM.
COc1ccc2c(O[C@@H]3C[C@H]4C(=O)N[C@]5(C(=O)NS(=O)(=O)C6CC6)C[C@H]5/C=C\CCCC(=O)N(C)CC(=O)N4C3)cc(-c3nc(C(C)C)cs3)nc2c1C [Compound 18, (2R,14aR,16aS,Z)-N-(cyclopropylsulfonyl)-2-(2-(4-isopropyithiazol-2-yl)-7-methoxy-8-methylquinolin-4-yloxy)-7-methyl-5,8,16-trioxo-1,2,3,5,6,7,8,9,10,11,13a,14,14a,15,16,16a-hexadecahydrocyclopropa[n]pyrrolo[2,1-c] [1,4,7]triazacyclopentadecine-14a-carboxamide] gave an EC50 of under 1000 nM.
For COC(=O)C[C@@H]1NC(=O)CCC/C=C\[C@@H]2C[C@@]2(C(=O)NS(=O)(=O)C2CC2)NC(=O)[C@@H]2C[C@@H](Oc3cc(-c4ccccc4)nc4cc(OC)ccc34)CN2C1=O [Compound 12, methyl 2-((2R,6S,14aR,16aS,Z)-14a-(cyclopropylsulfonylcarbamoyl)-2-(7-methoxy-2-phenylquinolin-4-yloxy)-5,8,16-trioxo-1,2,3,5,6,7,8,9,10,11,13a,14,14a,15,16,16a-hexadecahydrocyclopropa[n]pyrrolo[2,1-c] [1,4,7]triazacyclopentadecin-6-yl)acetate], the EC50 was 1000 to 10000 nM.
For C=CCCCC(=O)N[C@@H](C(=O)N1C[C@H](Oc2cc(-c3ccccc3)nc3cc(OC)ccc23)C[C@H]1C(=O)N[C@]1(C(=O)NS(=O)(=O)C2CC2)C[C@H]1C=C)C(C)(C)C [Compound 7, (2S,4R)-N-((1R,2S)-1-(cyclopropylsulfonylcarbamoyl)-2-vinylcyclopropyl)-1-((R)-2-hex-5-enamido-3,3-dimethylbutanoyl)-4-(7-methoxy-2-phenylquinolin-4-yloxy)pyrrolidine-2-carboxamide], the EC50 was 1000 to 10000 nM.
C=CCCCC(=O)N[C@@H](C(=O)N1C[C@H](Oc2cc(-c3ccccc3)nc3cc(OC)ccc23)C[C@H]1C(=O)N[C@@]1(C(=O)NS(=O)(=O)C2CC2)C[C@@H]1C=C)C(C)(C)C [Compound 8, (2S,4R)-N-((1S,2R)-1-(cyclopropylsulfonylcarbamoyl)-2-vinylcyclopropyl)-1-((R)-2-hex-5-enamido-3,3-dimethylbutanoyl)-4-(7-methoxy-2-phenylquinolin-4-yloxy)pyrrolidine-2-carboxamide] gave an EC50 of 1000 to 10000 nM.
Work on COc1ccc2c(O[C@@H]3C[C@H]4C(=O)N[C@]5(C(=O)NS(=O)(=O)C6CC6)C[C@H]5/C=C\CCCC(=O)N[C@H](C(C)(C)C)C(=O)N4C3)cc(-c3ccccc3)nc2c1 [Compound 5, (2R,6R,13aS,14aR,16aS,Z)-6-tert-butyl-N-(cyclopropylsulfonyl)-2-(7-methoxy-2-phenylquinolin-4-yloxy)-5,8,16-trioxo-1,2,3,5,6,7,8,9,10,11,13a,14,14a,15,16,16a-hexadecahydrocyclopropa[n]pyrrolo[2,1-c] [1,4,7]triazacyclopentadecine-14a-carboxamide] yielded an EC50 of over 10000 nM.
COc1ccc2c(O[C@@H]3C[C@H]4C(=O)N[C@]5(C(=O)NS(=O)(=O)C6CC6)C[C@H]5/C=C\CCCC(=O)N[C@@H](CC(=O)OC(C)(C)C)C(=O)N4C3)cc(-c3nc(C(C)C)cs3)nc2c1C [Compound 16, tert-butyl 2-((2R,6S,14aR,16aS,Z)-14a-(cyclopropylsulfonylcarbamoyl)-2-(2-(4-isopropyithiazol-2-yl)-7-methoxy-8-methylquinolin-4-yloxy)-5,8,16-trioxo-1,2,3,5,6,7,8,9,10,11,13a,14,14a,15,16,16a-hexadecahydrocyclopropa[n]pyrrolo [2,1-c][1,4,7]triazacyclopentadecin-6-yl)acetate] was tested, and the EC50 was under 1000 nM.
With COC(=O)CC1NC(=O)CCC/C=C\[C@@H]2C[C@@]2(C(=O)NS(=O)(=O)C2CC2)NC(=O)[C@@H]2C[C@@H](Oc3cc(-c4ccccc4)nc4cc(OC)ccc34)CN2C1=O (stereo partly drawn) [Compound 13, methyl 2-((2R,14aR,16aS,Z)-14a-(cyclopropylsulfonylcarbamoyl)-2-(7-methoxy-2-phenylquinolin-4-yloxy)-5,8,16-trioxo-1,2,3,5,6,7,8,9,10,11,13a,14,14a,15,16,16a-hexadecahydrocyclopropa[n]pyrrolo[2,1-c] [1,4,7]triazacyclopentadecin-6-yl)acetate] the EC50 was 1000 to 10000 nM.
Compound COc1ccc2c(O[C@@H]3C[C@H]4C(=O)NC5(C(=O)NS(=O)(=O)C6CC6)CC5/C=C\CCCC(=O)N[C@@H](CC(=O)OC(C)(C)C)C(=O)N4C3)cc(-c3ccccc3)nc2c1 (stereo partly drawn) [Compound 14, tert-butyl 2-((2R,6S,16aS,Z)-14a-(cyclopropylsulfonylcarbamoyl)-2-(7-methoxy-2-phenylquinolin-4-yloxy)-5,8,16-trioxo-1,2,3,5,6,7,8,9,10,11,13a,14,14a,15,16,16a-hexadecahydrocyclopropa[n]pyrrolo [2,1-c][1,4,7]triazacyclopentadecin-6-yl)acetate] has an EC50 of under 1000 nM.
